According to the supplement of paper PMC13380429:

How the values were obtained:
Settings in all cases: 72 h
HepG2 [1] = experiment: relative viability EC50 (midpoint between 100% and the lowest measured viability); higher = less toxic
U2OS [2] = experiment: as above
Calu-3 [3] = experiment: as above
Caco-2 [4] = experiment: as above
HepG2 [5] = experiment: drug sensitivity score (DSS) for viability; higher = more toxic; extreme values may be limits of the assay
U2OS [6] = experiment: as above
Calu-3 [7] = experiment: as above
Caco-2 [8] = experiment: as above
HepG2 [9] = experiment: cell viability relative to DMSO; higher = less toxic
U2OS [10] = experiment: as above
Calu-3 [11] = experiment: as above
Caco-2 [12] = experiment: as above
Vero E6 [13] = experiment: drug sensitivity score (DSS) for viability; higher = more toxic; extreme values may be limits of the assay
Vero E6 [14] = experiment: cell viability relative to DMSO; higher = less toxic
Vero E6 [15] = experiment: relative viability EC50 (midpoint between 100% and the lowest measured viability); higher = less toxic

| Compound | relative viability EC50 (HepG2 [1]) [µM] | relative viability EC50 (U2OS [2]) [µM] | relative viability EC50 (Calu-3 [3]) [µM] | relative viability EC50 (Caco-2 [4]) [µM] | drug sensitivity score (HepG2 [5]) | drug sensitivity score (U2OS [6]) | drug sensitivity score (Calu-3 [7]) | drug sensitivity score (Caco-2 [8]) | cell viability (HepG2 [9]; 1 nM) [%] | cell viability (HepG2 [9]; 10 nM) [%] | cell viability (HepG2 [9]; 100 nM) [%] | cell viability (HepG2 [9]; 1000 nM) [%] | cell viability (HepG2 [9]; 10000 nM) [%] | cell viability (U2OS [10]; 1 nM) [%] | cell viability (U2OS [10]; 10 nM) [%] | cell viability (U2OS [10]; 100 nM) [%] | cell viability (U2OS [10]; 1000 nM) [%] | cell viability (U2OS [10]; 10000 nM) [%] | cell viability (Calu-3 [11]; 1 nM) [%] | cell viability (Calu-3 [11]; 10 nM) [%] | cell viability (Calu-3 [11]; 100 nM) [%] | cell viability (Calu-3 [11]; 1000 nM) [%] | cell viability (Calu-3 [11]; 10000 nM) [%] | cell viability (Caco-2 [12]; 1 nM) [%] | cell viability (Caco-2 [12]; 10 nM) [%] | cell viability (Caco-2 [12]; 100 nM) [%] | cell viability (Caco-2 [12]; 1000 nM) [%] | cell viability (Caco-2 [12]; 10000 nM) [%] | drug sensitivity score (Vero E6 [13]) | cell viability (Vero E6 [14]; 1 nM) [%] | cell viability (Vero E6 [14]; 10 nM) [%] | cell viability (Vero E6 [14]; 100 nM) [%] | cell viability (Vero E6 [14]; 1000 nM) [%] | cell viability (Vero E6 [14]; 10000 nM) [%] | relative viability EC50 (Vero E6 [15]) [µM] |
| --- | --- | --- | --- | --- | --- | --- | --- | --- | --- | --- | --- | --- | --- | --- | --- | --- | --- | --- | --- | --- | --- | --- | --- | --- | --- | --- | --- | --- | --- | --- | --- | --- | --- | --- | --- |
| O=C(CNC(=O)c1ccc(Cl)cc1)NO [benurestat] | > 10 | > 10 | > 10 | > 10 | 0 | 0 | 0 | 0 | 110 | 108 | 104 | 101 | 95.8 | 96.8 | 104 | 97.5 | 104 | 95.1 | 107 | 104 | 103 | 103 | 99.3 | 98.5 | 98.5 | 97.4 | 98.5 | 98.1 | – | – | – | – | – | – | – |
| N[C@@H]1CCCCN(c2c(F)cc3c(=O)c(C(=O)O)cn(C4CC4)c3c2Cl)C1 [besifloxacin] | > 10 | > 10 | > 10 | > 10 | 0 | 0 | 0 | 0 | 102 | 92.2 | 108 | 113 | 97.8 | 98.2 | 99.5 | 95.6 | 102 | 98.9 | 100 | 97.3 | 100 | 103 | 107 | 97.1 | 98.4 | 100 | 104 | 93.5 | – | – | – | – | – | – | – |
| CCCCCCNC(=O)n1cc(F)c(=O)[nH]c1=O [carmofur] | 1.16 | – | > 10 | – | 6.3 | 2.4 | 0.4 | 2.2 | 100 | 98.3 | 101 | 76.4 | 42.5 | 98.7 | 103 | 98.5 | 99.5 | 54 | 95.4 | 93.1 | 90 | 94.8 | 83.7 | 107 | 98.5 | 95 | 97.8 | 61.7 | 2.4 | 106 | 102 | 102 | 97.4 | 58.8 | – |
| COCCOC(=O)C1=C(C)NC(C)=C(C(=O)OC/C=C/c2ccccc2)C1c1cccc([N+](=O)[O-])c1 (centres undefined) [cilnidipine] | > 10 | > 10 | > 10 | – | 0 | 0.1 | 0 | 2.5 | 118 | 104 | 114 | 104 | 91.8 | 99.1 | 103 | 98.8 | 104 | 85 | 99.2 | 105 | 93.3 | 105 | 95.2 | 91.1 | 94.3 | 94 | 92.9 | 67.7 | – | – | – | – | – | – | – |
| Clc1ccc(COC(Cn2ccnc2)c2ccc(Cl)cc2Cl)cc1 (centres undefined) [econazole] | – | > 10 | > 10 | – | 1.5 | 0 | 0 | 2.5 | 100 | 98.1 | 102 | 97.3 | 72.6 | 102 | 97.8 | 95.6 | 95.3 | 90.7 | 104 | 103 | 103 | 102 | 98.5 | 94.5 | 90.1 | 97 | 90.9 | 68.6 | 0 | 104 | 108 | 106 | 102 | 94.7 | > 10 |
| C[n+]1ccc(C(=O)NCc2ccccc2)cc1 [enisamium-iodide] | > 10 | > 10 | > 10 | > 10 | 2.8 | 0 | 0 | 0 | 88.7 | 96.3 | 99.7 | 79.7 | 81.7 | 104 | 103 | 98.9 | 103 | 103 | 96.5 | 100 | 91 | 108 | 102 | 98.8 | 103 | 87.7 | 94.5 | 99.1 | – | – | – | – | – | – | – |
| CC(C)C[C@H](NC(=O)CNC(=O)[C@H](Cc1ccc(O)cc1)NC(=O)[C@H](CO)NC(=O)[C@H](Cc1c[nH]c2ccccc12)NC(=O)[C@H](Cc1cnc[nH]1)NC(=O)[C@@H]1CCC(=O)N1)C(=O)N[C@@H](CCCNC(=N)N)C(=O)N1CCC[C@H]1C(=O)NCC(N)=O [gonadorelin] | > 10 | > 10 | > 10 | > 10 | 0 | 0 | 0 | 0 | 108 | 86.8 | 102 | 101 | 96.2 | 97.4 | 100 | 98.4 | 98 | 97.7 | 94.7 | 98.8 | 92.2 | 86.9 | 97.5 | 106 | 96 | 100 | 99.7 | 100 | – | – | – | – | – | – | – |
| c1nc(CC2CCNCC2)c[nH]1 [immepip] | > 10 | > 10 | > 10 | > 10 | 0 | 0 | 0 | 0 | 108 | 107 | 103 | 111 | 95.7 | 98.1 | 99.8 | 97.2 | 93.3 | 97.9 | 96.7 | 91.6 | 111 | 111 | 99.9 | 113 | 101 | 98.6 | 98.8 | 102 | – | – | – | – | – | – | – |
| COc1ccc2c(c1)c(CC(=O)O)c(C)n2C(=O)c1ccc(Cl)cc1 [indomethacin] | > 10 | > 10 | > 10 | > 10 | 0 | 0 | 1 | 0 | 105 | 100 | 108 | 94.7 | 95 | 98.9 | 102 | 97.8 | 101 | 99.7 | 99.2 | 96.4 | 90.7 | 84.3 | 91.8 | 95.6 | 98.6 | 101 | 98.4 | 94.6 | – | – | – | – | – | – | – |
| C[C@]12CC/C(=N\OCCN)C[C@@H]1C(=O)C[C@@H]1[C@@H]2CC[C@]2(C)C(=O)CC[C@@H]12 [istaroxime] | > 10 | – | > 10 | – | 0 | 3.2 | 0 | 2.1 | 110 | 102 | 88.6 | 99.7 | 87.2 | 98.8 | 96.9 | 101 | 95.7 | 51.4 | 94.5 | 96.5 | 93 | 91.1 | 95.5 | 97.6 | 93.1 | 95.7 | 88.4 | 71.7 | 2.2 | 106 | 105 | 98.3 | 97.9 | 61.1 | – |
| CC(=O)SCCC(=O)N1[C@H](C)CCC[C@@H]1C(=O)O [methiopril] | > 10 | – | > 10 | > 10 | 0 | – | 0.1 | 0 | 109 | 99.3 | 98.6 | 96 | 97.2 | – | – | – | – | – | 99.2 | 99.6 | 96.8 | 97.5 | 88.1 | 96.1 | 103 | 93.8 | 100 | 89.6 | – | – | – | – | – | – | – |
| COc1ccc(OC)c(C(O)C(C)N)c1 (centres undefined) [methoxamine] | – | – | > 10 | – | – | – | 0 | – | – | – | – | – | – | – | – | – | – | – | 93.7 | 99.6 | 103 | 100 | 109 | – | – | – | – | – | 0 | 109 | 107 | 99.4 | 102 | 102 | > 10 |
| O=C(O)c1cc(/N=N/c2ccc(O)c(C(=O)O)c2)ccc1O [olsalazine] | – | > 10 | > 10 | > 10 | – | 0 | 0 | 0 | – | – | – | – | – | 99 | 102 | 103 | 107 | 103 | 107 | 94.3 | 94.4 | 100 | 105 | 96.8 | 107 | 104 | 106 | 91.9 | – | – | – | – | – | – | – |
| [I-].[K+] [potassium-iodide] | – | – | > 10 | – | – | – | 0 | – | – | – | – | – | – | – | – | – | – | – | 99.9 | 111 | 96.2 | 102 | 95.1 | – | – | – | – | – | 0 | 102 | 99.7 | 103 | 101 | 106 | > 10 |
| COc1cc2c(cc1OC)[C@@H]1Cc3ccc(OC)c(OC)c3CN1CC2 [rotundine] | – | – | > 10 | > 10 | – | – | 0 | 0 | – | – | – | – | – | – | – | – | – | – | 103 | 108 | 99.8 | 101 | 89.2 | 102 | 98.1 | 94.8 | 109 | 91 | – | – | – | – | – | – | – |
| CC1(C)CCC(C)(C)c2cc(NC(=O)c3ccc(C(=O)O)cc3)ccc21 [tamibarotene] | > 10 | > 10 | – | > 10 | 0 | 0.3 | 10.1 | 0.4 | 110 | 98.7 | 114 | 109 | 108 | 99 | 96.1 | 90.6 | 91.4 | 87.7 | 95.4 | 83.6 | 73.5 | 67.8 | 70.1 | 98 | 100 | 95.4 | 98.8 | 83.8 | 0 | 101 | 101 | 100 | 91.6 | 96.5 | > 10 |
| COc1cc([C@@H]2c3cc4c(cc3[C@@H](O[C@@H]3O[C@@H]5CO[C@@H](c6cccs6)O[C@H]5[C@H](O)[C@H]3O)[C@H]3COC(=O)[C@H]23)OCO4)cc(OC)c1O [teniposide] | 0.0761 | 1.37 | 0.129 | 1.16 | 21.5 | 9.4 | 12.6 | 7.8 | 89.6 | 86.1 | 47.3 | 27.8 | 9.9 | 99.3 | 94.4 | 92.7 | 66.5 | 4.2 | 91.1 | 92.6 | 75.8 | 47.2 | 40.6 | 108 | 95.7 | 100 | 71 | 29 | 4.6 | 106 | 92.8 | 100 | 75 | 64 | – |
| C/C=C/C[C@@H](C)C(=O)[C@H]1C(=O)N[C@@H](C(C)C)C(=O)N(C)CC(=O)N(C)[C@@H](CC(C)C)C(=O)N[C@@H](C(C)C)C(=O)N(C)[C@@H](CC(C)C)C(=O)N[C@@H](C)C(=O)N[C@H](C)C(=O)N(C)[C@@H](CC(C)C)C(=O)N(C)[C@@H](CC(C)C)C(=O)N(C)[C@@H](C(C)C)C(=O)N1C [valspodar] | – | > 10 | > 10 | – | – | 0.1 | 0.3 | 5.9 | – | – | – | – | – | 99.9 | 96.4 | 102 | 99.7 | 87.4 | 109 | 99.8 | 95.4 | 105 | 82.2 | 119 | 111 | 106 | 73.5 | 50.7 | – | – | – | – | – | – | – |
